Measurements published in US8481732B2 (Incyte Corporation, priority 2009, dated 2013).

The compounds below were run against T1, histamine H4 receptor (Homo sapiens, UniProt Q9H3N8) (assay: H4 Membrane Binding Assay (3H-Histamine displacement)). Conditions: membranes of recombinant HEK293SFM cells, 10 nM 3H-Histamine, 1.5 hr at room temperature.
T1 construct: expressed in transfected cells; host or cells: HEK293SFM cells (membrane preparation)
Method: Recombinant HEK293SFM cells expressing human H1, H2, H3, H4 or mouse H4 were harvested (Packard Filtermate Harvester) in ice-cold Tris-HCl, (50 mM, pH 7.5, Sigma) with protease inhibitors (Roche) and homogenized with a Polytron homogenizer. The homogenate was centrifuged for 5 minutes at 1000 g to remove nuclei and unbroken cells. The supernatant was centrifuged at 50000 g for 30 minutes, and the resulting pellet was re-suspended in ice-cold Tris-HCl (50 mM, pH 7.5). […] Nonspecific binding was determined by inclusion of 1000× unlabeled ligands. The bound radioactivity was separated by filtration through polyethyleneimine-treated GF/B filters (Perkin Elmer). The filters were washed eight times with ice-cold Tris-HCl (50 mM, pH 7.5), and radioactivity retained on the filters was measured by liquid scintillation counting. The binding data were evaluated with Prism.

T1 sequence (Q9H3N8 whole entry): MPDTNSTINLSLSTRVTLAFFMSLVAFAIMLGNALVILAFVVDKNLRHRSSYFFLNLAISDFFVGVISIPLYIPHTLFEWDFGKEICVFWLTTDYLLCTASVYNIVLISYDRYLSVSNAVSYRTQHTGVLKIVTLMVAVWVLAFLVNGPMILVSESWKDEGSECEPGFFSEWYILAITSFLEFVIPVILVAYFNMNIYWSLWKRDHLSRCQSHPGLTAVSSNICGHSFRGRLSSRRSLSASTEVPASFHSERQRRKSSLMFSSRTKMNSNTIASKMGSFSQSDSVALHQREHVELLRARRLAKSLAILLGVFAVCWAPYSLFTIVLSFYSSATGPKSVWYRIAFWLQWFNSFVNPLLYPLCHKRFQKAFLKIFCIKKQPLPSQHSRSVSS

Row | Compound | IC50
1 | CC(CC(=O)N1CCc2ccc(-c3cc(N4CCN(C)CC4)nc(N)n3)cc2C1)C(F)(F)F (centres unmarked) [Example 62, 4-(4-Methylpiperazin-1-yl)-6-[2-(4,4,4-trifluoro-3-methylbutanoyl)-1,2,3,4-tetrahydroisoquinolin-7-yl]pyrimidin-2-amine] | 24 nM
2 | CN1CCN(c2cc(-c3ccc4c(c3)CN(C(=O)NC3CCC(F)(F)CC3)CC4)nc(N)n2)CC1 [Example 63, 7-[2-Amino-6-(4-methylpiperazin-1-yl)pyrimidin-4-yl]-N-(4,4-difluorocyclohexyl)-3,4-dihydroisoquinoline-2(1H)-carboxamide] | 37 nM
3 | CN1CCN(c2cc(-c3ccc4c(c3)CN(C(=O)NC3CCC(C(F)(F)F)CC3)CC4)nc(N)n2)CC1 (centres unmarked) [Example 64, 7-[2-Amino-6-(4-methylpiperazin-1-yl)pyrimidin-4-yl]-N-[4-(trifluoromethyl)cyclohexyl]-3,4-dihydroisoquinoline-2(1H)-carboxamide] | 43 nM
4 | CN1CCN(c2cc(-c3ccc4c(c3)CN(C(=O)Cc3ccc(F)cc3)CC4)nc(N)n2)CC1 [Example 65, 4-{2-[(4-Fluorophenyl)acetyl]-1,2,3,4-tetrahydroisoquinolin-7-yl}-6-(4-methylpiperazin-1-yl)pyrimidin-2-amine] | 25 nM
5 | CN1CCN(c2cc(-c3ccc4c(c3)CN(C(=O)COc3cccc(Cl)c3)CC4)nc(N)n2)CC1 [Example 66, 4-{2-[(3-Chlorophenoxy)acetyl]-1,2,3,4-tetrahydroisoquinolin-7-yl}-6-(4-methylpiperazin-1-yl)pyrimidin-2-amine] | 44 nM
6 | CN1CCN(c2cc(-c3ccc4c(c3)CN(C(=O)OC3CCN(C(=O)C5CCCC5)CC3)CC4)nc(N)n2)CC1 [Example 67, 1-(Cyclopentylcarbonyl)piperidin-4-yl 7-[2-amino-6-(4-methylpiperazin-1-yl)pyrimidin-4-yl]-3,4-dihydroisoquinoline-2(1H)-carboxylate] | 110 nM
7 | CC(C)OC(=O)N1CCC(OC(=O)N2CCc3ccc(-c4cc(N5CCN(C)CC5)nc(N)n4)cc3C2)CC1 [Example 68, 1-(Isopropoxycarbonyl)piperidin-4-yl 7-[2-amino-6-(4-methylpiperazin-1-yl)pyrimidin-4-yl]-3,4-dihydroisoquinoline-2(1H)-carboxylate] | 38 nM
8 | CN1CCN(c2cc(-c3ccc4c(c3)CN(C(=O)OC3CCN(C(=O)OC5CCCC5)CC3)CC4)nc(N)n2)CC1 [Example 69, 1-[(Cyclopentyloxy)carbonyl]piperidin-4-yl 7-[2-amino-6-(4-methylpiperazin-1-yl)pyrimidin-4-yl]-3,4-dihydroisoquinoline-2(1H)-carboxylate] | 33 nM
9 | CN1CCN(c2cc(-c3ccc4c(c3)CN(C(=O)OC3CCN(C(=O)NC5CCCC5)CC3)CC4)nc(N)n2)CC1 [Example 70, 1-[(Cyclopentylamino)carbonyl]piperidin-4-yl 7-[2-amino-6-(4-methylpiperazin-1-yl)pyrimidin-4-yl]-3,4-dihydroisoquinoline-2(1H)-carboxylate] | 361 nM
10 | CC(C)OC(=O)N1CCC(CC(=O)N2CCc3ccc(-c4cc(N5CCN(C)CC5)nc(N)n4)cc3C2)CC1 [Example 71, Isopropyl 4-{2-[7-[2-amino-6-(4-methylpiperazin-1-yl)pyrimidin-4-yl]-3,4-dihydroisoquinolin-2(1H)-yl]-2-oxoethyl}piperidine-1-carboxylate] | 66 nM
11 | CN1CCN(c2cc(-c3ccc4c(c3)CN(C(=O)CC3CCN(C(=O)C5CC5)CC3)CC4)nc(N)n2)CC1 [Example 72, 4-(2-{[1-(Cyclopropylcarbonyl)piperidin-4-yl]acetyl}-1,2,3,4-tetrahydroisoquinolin-7-yl)-6-(4-methylpiperazin-1-yl)pyrimidin-2-amine] | 419 nM
12 | CN1CCN(c2cc(-c3ccc4c(c3)CN(C(=O)CC3CCN(C(=O)c5ccccc5)CC3)CC4)nc(N)n2)CC1 [Example 73, 4-{2-[(1-Benzoylpiperidin-4-yl)acetyl]-1,2,3,4-tetrahydroisoquinolin-7-yl}-6-(4-methylpiperazin-1-yl)pyrimidin-2-amine] | 357 nM
13 | CCS(=O)(=O)N1CCC(CC(=O)N2CCc3ccc(-c4cc(N5CCN(C)CC5)nc(N)n4)cc3C2)CC1 [Example 74, 4-(2-{[1-(Ethylsulfonyl)piperidin-4-yl]acetyl}-1,2,3,4-tetrahydroisoquinolin-7-yl)-6-(4-methylpiperazin-1-yl)pyrimidin-2-amine] | 123 nM
14 | CN1CCN(c2cc(-c3cc4c(cc3F)CCN(C(=O)Nc3ccc(Cl)cc3)C4)nc(N)n2)CC1 [Example 75, 7-[2-Amino-6-(4-methylpiperazin-1-yl)pyrimidin-4-yl]-N-(4-chlorophenyl)-6-fluoro-3,4-dihydroisoquinoline-2(1H)-carboxamide] | 44 nM
15 | CN1CCN(c2cc(-c3cc4c(cc3F)CCN(C(=O)NC3CCCCC3)C4)nc(N)n2)CC1 [Example 76, 7-[2-Amino-6-(4-methylpiperazin-1-yl)pyrimidin-4-yl]-N-cyclohexyl-6-fluoro-3,4-dihydroisoquinoline-2(1H)-carboxamide] | 77 nM
16 | Cc1cc2c(cc1-c1cc(N3CCN(C)CC3)nc(N)n1)CN(C(=O)Nc1ccc(Cl)cc1)CC2 [Example 77, 7-[2-Amino-6-(4-methylpiperazin-1-yl)pyrimidin-4-yl]-N-(4-chlorophenyl)-6-methyl-3,4-dihydroisoquinoline-2(1H)-carboxamide] | 95 nM
17 | Cc1cc2c(cc1-c1cc(N3CCN(C)CC3)nc(N)n1)CN(C(=O)NC1CCCCC1)CC2 [Example 78, 7-[2-Amino-6-(4-methylpiperazin-1-yl)pyrimidin-4-yl]-N-cyclohexyl-6-methyl-3,4-dihydroisoquinoline-2(1H)-carboxamide] | 250 nM
18 | CN1CCN(c2cc(-c3ccc4c(c3)CN(C(=O)OC3CCOC3)CC4)nc(N)n2)CC1 (centres unmarked) [Example 79, Tetrahydrofuran-3-yl 7-[2-amino-6-(4-methylpiperazin-1-yl)pyrimidin-4-yl]-3,4-dihydroisoquinoline-2(1H)-carboxylate] | 364 nM
19 | CN1CCN(c2cc(-c3ccc4c(c3)CN(C(=O)NCc3ccccc3)CC4)nc(N)n2)CC1 [Example 80, 7-[2-Amino-6-(4-methylpiperazin-1-yl)pyrimidin-4-yl]-N-benzyl-3,4-dihydroisoquinoline-2(1H)-carboxamide] | 232 nM
20 | CN1CCN(c2cc(-c3ccc4c(c3)CN(C(=O)N(C)C3CCCCC3)CC4)nc(N)n2)CC1 [Example 81, 7-[2-Amino-6-(4-methylpiperazin-1-yl)pyrimidin-4-yl]-N-cyclohexyl-N-methyl-3,4-dihydroisoquinoline-2(1H)-carboxamide] | 163 nM
21 | CN1CCN(c2cc(-c3ccc4c(c3)CN(C(=O)NC3CCc5ccccc53)CC4)nc(N)n2)CC1 (centres unmarked) [Example 82, 7-[2-Amino-6-(4-methylpiperazin-1-yl)pyrimidin-4-yl]-N-(2,3-dihydro-1H-inden-1-yl)-3,4-dihydroisoquinoline-2(1H)-carboxamide] | 67 nM
22 | CN1CCN(c2cc(-c3ccc4c(c3)CN(C(=O)NC3CCCc5ccccc53)CC4)nc(N)n2)CC1 (centres unmarked) [Example 83, 7-[2-Amino-6-(4-methylpiperazin-1-yl)pyrimidin-4-yl]-N-(1,2,3,4-tetrahydronaphthalen-1-yl)-3,4-dihydroisoquinoline-2(1H)-carboxamide] | 38 nM
23 | CN1CCN(c2cc(-c3ccc4c(c3)CN(C(=O)N[C@@H]3CCOC3)CC4)nc(N)n2)CC1 [Example 84, 7-[2-Amino-6-(4-methylpiperazin-1-yl)pyrimidin-4-yl]-N-[(3R)-tetrahydrofuran-3-yl]-3,4-dihydroisoquinoline-2(1H)-carboxamide] | 744 nM
24 | CN1CCN(c2cc(-c3ccc4c(c3)CN(C(=O)N[C@@H]3c5ccccc5C[C@@H]3O)CC4)nc(N)n2)CC1 [Example 87, 7-[2-Amino-6-(4-methylpiperazin-1-yl)pyrimidin-4-yl]-N-[(1R,2S)-2-hydroxy-2,3-dihydro-1H-inden-1-yl]-3,4-dihydroisoquinoline-2(1H)-carboxamide] | 218 nM
25 | CN1CCN(c2cc(-c3ccc4c(c3)CN(C(=O)Nc3nccs3)CC4)nc(N)n2)CC1 [Example 88, 7-[2-Amino-6-(4-methylpiperazin-1-yl)pyrimidin-4-yl]-N-1,3-thiazol-2-yl-3,4-dihydroisoquinoline-2(1H)-carboxamide] | 135 nM
26 | CN1CCN(c2cc(-c3ccc4c(c3)CN(C(=O)OC3CCN(S(=O)(=O)C5CCCC5)CC3)CC4)nc(N)n2)CC1 [Example 89, 1-(Cyclopentylsulfonyl)piperidin-4-yl 7-[2-amino-6-(4-methylpiperazin-1-yl)pyrimidin-4-yl]-3,4-dihydroisoquinoline-2(1H)-carboxylate] | 77 nM
27 | CN1CCN(c2cc(-c3ccc4c(c3)CN(C(=O)Nc3nc5ccccc5s3)CC4)nc(N)n2)CC1 [Example 90, 7-[2-Amino-6-(4-methylpiperazin-1-yl)pyrimidin-4-yl]-N-1,3-benzothiazol-2-yl-3,4-dihydroisoquinoline-2(1H)-carboxamide] | 143 nM
28 | CN1CCN(c2cc(-c3ccc4c(c3)CN(C(=O)Nc3ccc(-c5ccccc5)cn3)CC4)nc(N)n2)CC1 [Example 91, 7-[2-Amino-6-(4-methylpiperazin-1-yl)pyrimidin-4-yl]-N-(5-phenylpyridin-2-yl)-3,4-dihydroisoquinoline-2(1H)-carboxamide] | 63 nM
29 | CC(C)Oc1ccc(NC(=O)N2CCc3ccc(-c4cc(N5CCN(C)CC5)nc(N)n4)cc3C2)cc1 [Example 92, 7-[2-Amino-6-(4-methylpiperazin-1-yl)pyrimidin-4-yl]-N-(4-isopropoxyphenyl)-3,4-dihydroisoquinoline-2(1H)-carboxamide] | 50 nM
